Laboratory results: publication PMC9901219 (European Journal of Medicinal Chemistry, 2023)

Legend:
Cathepsin L = Cathepsin L (Homo sapiens, UniProt P07711); assay type: biochemical; settings: calpain 1 and cathepsin L versus SARS-CoV-2 3CLpro
SARS-CoV-2 3CLpro [1] = target: T1, SARS-CoV-2 3CLpro (Severe acute respiratory syndrome coronavirus 2, UniProt P0DTD1); assay type: biochemical
[2] = Stability of compound in enzymatic assay buffer with GSH; assay type: physicochemical
Human Calpain 1 = target: T2, Human Calpain 1 (Homo sapiens, UniProt P07384); experiment: Calpain assay; assay type: biochemical
T2 sequence (P07384 1-714): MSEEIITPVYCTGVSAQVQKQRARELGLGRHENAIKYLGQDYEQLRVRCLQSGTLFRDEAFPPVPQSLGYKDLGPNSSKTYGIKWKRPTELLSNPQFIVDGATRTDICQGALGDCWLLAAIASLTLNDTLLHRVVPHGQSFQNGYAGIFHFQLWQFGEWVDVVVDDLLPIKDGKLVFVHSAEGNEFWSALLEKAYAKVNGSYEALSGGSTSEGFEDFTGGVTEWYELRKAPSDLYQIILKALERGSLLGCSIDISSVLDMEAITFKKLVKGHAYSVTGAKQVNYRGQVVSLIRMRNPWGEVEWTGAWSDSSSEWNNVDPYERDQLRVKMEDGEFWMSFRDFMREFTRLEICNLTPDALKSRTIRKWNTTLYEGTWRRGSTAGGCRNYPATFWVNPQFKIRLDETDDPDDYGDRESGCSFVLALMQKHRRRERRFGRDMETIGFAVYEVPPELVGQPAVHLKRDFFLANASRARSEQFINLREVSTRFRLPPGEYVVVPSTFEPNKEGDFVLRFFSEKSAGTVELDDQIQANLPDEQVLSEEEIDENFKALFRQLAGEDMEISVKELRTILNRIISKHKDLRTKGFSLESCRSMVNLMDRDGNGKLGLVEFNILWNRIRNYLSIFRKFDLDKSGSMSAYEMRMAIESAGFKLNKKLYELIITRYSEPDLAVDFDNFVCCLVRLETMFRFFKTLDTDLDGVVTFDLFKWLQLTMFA
T2 sequence (P04632 1-268 partner): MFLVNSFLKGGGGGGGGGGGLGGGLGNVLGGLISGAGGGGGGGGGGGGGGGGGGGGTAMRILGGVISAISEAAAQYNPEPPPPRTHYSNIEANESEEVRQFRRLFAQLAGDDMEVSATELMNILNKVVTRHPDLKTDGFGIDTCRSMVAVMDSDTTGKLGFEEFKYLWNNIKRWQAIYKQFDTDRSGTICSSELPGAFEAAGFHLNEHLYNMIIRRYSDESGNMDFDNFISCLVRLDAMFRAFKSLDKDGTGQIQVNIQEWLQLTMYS

SARS-CoV-2 3CLpro [3] = target: T1, SARS-CoV-2 3CLpro; experiment: biochemical
SARS-CoV-2 3CLpro [4] = target: T1, SARS-CoV-2 3CLpro; assay type: binding

Cathepsin L, sequence (P07711 114-333): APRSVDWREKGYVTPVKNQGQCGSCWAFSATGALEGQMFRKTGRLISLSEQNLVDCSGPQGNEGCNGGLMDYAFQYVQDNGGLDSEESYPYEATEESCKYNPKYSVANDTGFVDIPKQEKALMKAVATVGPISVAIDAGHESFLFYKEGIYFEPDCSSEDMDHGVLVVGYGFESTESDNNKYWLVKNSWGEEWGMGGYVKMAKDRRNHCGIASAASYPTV

## Cc1cccc2nc(CSC(=S)NCc3cccnc3)cn12 [Compound 1, (5-methylimidazo[1,2-a]pyridin-2-yl)methyl (pyridin-3-ylmethyl)carbamodithioate]
Cathepsin L
  selectivity over two human cysteine proteases: more than 80 fold
SARS-CoV-2 3CLpro [1]
  enzyme inhibition after jump dilution: around 80%
  enzyme inhibition after jump dilution (words): no more inhibition
  time within which inhibition is reversible: ≤ 2 h
[2]; 100 μM in enzymatic assay buffer, 2 mM GSH, 1.5 h incubation
  disappearance of the compound: less than 10%
[2]; after 90 min, GSH 2 mM
  reaction conversion with GSH: < 10%
Human Calpain 1
  IC50: > 300000 nM
Human Calpain 1; GSH 2 mM, pre-incubation of 30 min
  Human Calpain 1 pIC50 ± SD: > 3.52
SARS-CoV-2 3CLpro [3]
  Assay without GSH pIC50 ± SD: 7.67 ± 0.30
  SARS-CoV-2 (Beta-CoV) 3CLpro pIC50 ± SD: 0.021 (7.67 ± 0.30)
SARS-CoV-2 3CLpro [3]; SARS-CoV-2 3CLpro IC50
  IC50: 1750 nM
SARS-CoV-2 3CLpro [4]
  Thermal shift ΔTm of SARS-CoV-2 3CLpro with GSH: 11.33 °C

## Cc1cccc2nc(CNC(=S)NCc3cccnc3)cn12 [Compound 1A, 1-((5-methylimidazo[1,2-a]pyridin-2-yl)methyl)-3-(pyridin-3-ylmethyl)thiourea]
SARS-CoV-2 3CLpro [3]
  Assay without GSH pIC50 ± SD: 4.46 ± 0.19
  inhibitory effect on SARS-CoV-2 3CLpro: inactive

## CCSC(=S)NCc1cccnc1 [Compound 1B, Ethyl (pyridin-3-ylmethyl)carbamodithioate]
SARS-CoV-2 3CLpro [3]
  fold lower potency compared to compound 1: 8 fold

## S=C(NCc1cccnc1)OCc1ccccc1 [Compound 1D, O-benzyl(pyridin-3-ylmethyl)carbamothioate]
SARS-CoV-2 3CLpro [3]
  inhibitory effect on SARS-CoV-2 3CLpro: inactive

## CC(=O)[O-].CC(=O)[O-].[Zn+2] [zinc acetate, reference compound]
SARS-CoV-2 3CLpro [3]
  inhibitory activity in presence of zinc chelator EDTA: completely loose its inhibitory activity
